In patent US20200246277A1, “Composition For Alleviating, Preventing Or Treating Premenstrual Syndrome, Containing, As Active Ingredient, Pinitol, D-Chiro-Inositol Or Analog Compound Thereof” (DY NATURAL CO., LTD., priority 2015, published 2020):
Entries after “also recorded” stand apart in the source; their conditions may differ.

Tested on: premenstrual syndrome
Assay: Blind test with questionnaire survey: alleviating effect on premenstrual syndrome, once a day for eight weeks
Format: in vivo, women
Conditions: for alleviation, percentage / alleviation, the number of people / complete alleviation, percentage / complete alleviation, the number of people / no change, percentage / no change, the number of people / significant alleviation, percentage / significant alleviation, the number of people: eight weeks
From the text: 1. Evaluation of Administration of Pinitol or D-Chiro-Inositol to Female Subject Pinitol and D-chiro-inositol were purchased from Biosearch Life (Camino de Purchil, 66. 18004 Granada, Spain). Selected as experiment subjects were 80 normal women of reproductive age, that is, 80 women at the age of 25-40 who had neither skipped three or more cycles of menstruation, nor been administered with a contraceptive pill, and nor received a psychiatric treatment. Of them, 40 persons were classified into four groups of 10 which were then administered respectively with a placebo free of pinitol and having no pharmaceutical effects and with pinitol at three different doses. Likewise, the remaining 40 persons were equally divided into one placebo group and three experimental groups to which D-chiro-inositol was administered at three different doses, respectively. A blind test was conducted in which the placebo and pinitol or D-chiro-inositol was administered once a day for eight weeks. Pinitol or D-chiro-inositol was administered at daily doses of 600 mg, 1,200 mg, and 2,400 mg for eight weeks. A survey was made of the experimental subjects before and after the clinical test of placebo and pinitol or D-chiro-inositol to evaluate the alleviating effect of pinitol or D-chiro-inositol on premenstrual syndrome. 2. Survey In the present disclosure, the questionnaire that experimental subjects had completed with respect to the severity of premenstrual syndrome were analyzed. The experimental subjects evaluated the placebo, pinitol, or D-chiro-inositol for a pharmacological effect on premenstrual syndrome on the basis of four grades: complete alleviation, significant alleviation, somewhat alleviation, and no change for dysmenorrhea, a period of dysmenorrhea, and coldness of hands and feet. [table]

[1] = administration group of 1,200 mg or 2,400 mg
[2] = coldness of hands and feet, 600 mg a day
[3] = coldness of hands and feet, 1,200 mg a day
[4] = coldness of hands and feet, 2,400 mg a day
[5] = period of dysmenorrhea, 600 mg a day
[6] = period of dysmenorrhea, 1,200 mg a day
[7] = period of dysmenorrhea, 2,400 mg a day

CO[C@H]1[C@H](O)[C@@H](O)[C@@H](O)[C@H](O)[C@@H]1O [Pinitol, pinitol]
share of group with somewhat or significant alleviation of the main symptoms of premenstrual syndrome (administration group of 600 mg, across main symptoms): 50-60%
share of group with complete alleviation of the main symptoms (administration group of 1,200 mg): ≥ 50%
share of group that answered alleviation in the main symptoms [1]: 80-90%
share of group that did not feel changes in the main symptoms of premenstrual syndrome [1]: 10%
share of group with complete alleviation of the main symptoms (administration group of 2,400 mg): 70-80%
alleviation, percentage [2]: 40.0%
alleviation, the number of people [2]: 4 person
complete alleviation, percentage [2]: 0.0%
complete alleviation, the number of people [2]: 0 person
no change, percentage [2]: 50.0%
no change, the number of people [2]: 5 person
significant alleviation, percentage [2]: 10.0%
significant alleviation, the number of people [2]: 1 person
alleviation, percentage [3]: 10.0%
alleviation, the number of people [3]: 1 person
complete alleviation, percentage [3]: 40.0%
complete alleviation, the number of people [3]: 4 person
no change, percentage [3]: 20.0%
no change, the number of people [3]: 2 person
significant alleviation, percentage [3]: 30.0%
significant alleviation, the number of people [3]: 3 person
alleviation, percentage [4]: 10.0%
alleviation, the number of people [4]: 1 person
complete alleviation, percentage [4]: 70.0%
complete alleviation, the number of people [4]: 7 person
no change, percentage [4]: 10.0%
no change, the number of people [4]: 1 person
significant alleviation, percentage [4]: 10.0%
significant alleviation, the number of people [4]: 1 person
effect on the main symptoms of premenstrual syndrome (dysmenorrhea, period of dysmenorrhea, coldness of hands and feet), in words (daily dose of 600 mg, 1,200 mg, and 2,400 mg): Significant reductions; also recorded: significantly alleviating
alleviation, percentage (dysmenorrhea, 600 mg a day): 30.0%
alleviation, the number of people (dysmenorrhea, 600 mg a day): 3 person
complete alleviation, percentage (dysmenorrhea, 600 mg a day): 0.0%
complete alleviation, the number of people (dysmenorrhea, 600 mg a day): 0 person
no change, percentage (dysmenorrhea, 600 mg a day): 40.0%
no change, the number of people (dysmenorrhea, 600 mg a day): 4 person
significant alleviation, percentage (dysmenorrhea, 600 mg a day): 30.0%
significant alleviation, the number of people (dysmenorrhea, 600 mg a day): 3 person
alleviation, percentage (dysmenorrhea, 1,200 mg a day): 10.0%
alleviation, the number of people (dysmenorrhea, 1,200 mg a day): 1 person
complete alleviation, percentage (dysmenorrhea, 1,200 mg a day): 60.0%
complete alleviation, the number of people (dysmenorrhea, 1,200 mg a day): 6 person
no change, percentage (dysmenorrhea, 1,200 mg a day): 10.0%
no change, the number of people (dysmenorrhea, 1,200 mg a day): 1 person
significant alleviation, percentage (dysmenorrhea, 1,200 mg a day): 20.0%
significant alleviation, the number of people (dysmenorrhea, 1,200 mg a day): 2 person
alleviation, percentage (dysmenorrhea, 2,400 mg a day): 0.0%
alleviation, the number of people (dysmenorrhea, 2,400 mg a day): 0 person
complete alleviation, percentage (dysmenorrhea, 2,400 mg a day): 80.0%
complete alleviation, the number of people (dysmenorrhea, 2,400 mg a day): 8 person
no change, percentage (dysmenorrhea, 2,400 mg a day): 0.0%
no change, the number of people (dysmenorrhea, 2,400 mg a day): 0 person
significant alleviation, percentage (dysmenorrhea, 2,400 mg a day): 20.0%
significant alleviation, the number of people (dysmenorrhea, 2,400 mg a day): 2 person
alleviation, percentage [5]: 20.0%
alleviation, the number of people [5]: 2 person
complete alleviation, percentage [5]: 0.0%
complete alleviation, the number of people [5]: 0 person
no change, percentage [5]: 50.0%
no change, the number of people [5]: 5 person
significant alleviation, percentage [5]: 30.0%
significant alleviation, the number of people [5]: 3 person
alleviation, percentage [6]: 20.0%
alleviation, the number of people [6]: 2 person
complete alleviation, percentage [6]: 50.0%
complete alleviation, the number of people [6]: 5 person
no change, percentage [6]: 10.0%
no change, the number of people [6]: 1 person
significant alleviation, percentage [6]: 20.0%
significant alleviation, the number of people [6]: 2 person
alleviation, percentage [7]: 0.0%
alleviation, the number of people [7]: 0 person
complete alleviation, percentage [7]: 80.0%
complete alleviation, the number of people [7]: 8 person
no change, percentage [7]: 0.0%
no change, the number of people [7]: 0 person
significant alleviation, percentage [7]: 20.0%
significant alleviation, the number of people [7]: 2 person
